Test results taken from US20120142718A1 (priority 2007, published 2012).
Like-named read-outs stand apart in the source and are kept apart here.

Tests used:
[1] = type: physicochemical
μ-opioid receptor = target: T1, μ-opioid receptor (Homo sapiens, UniProt P35372); assay: biochemical; type: binding
T1 construct: expressed in transfected cells; host or cells: HEK-293 cells

[2] = male, Sprague-Dawley, rat, in vivo, 20 mg/kg

T1 sequence (P35372 whole entry): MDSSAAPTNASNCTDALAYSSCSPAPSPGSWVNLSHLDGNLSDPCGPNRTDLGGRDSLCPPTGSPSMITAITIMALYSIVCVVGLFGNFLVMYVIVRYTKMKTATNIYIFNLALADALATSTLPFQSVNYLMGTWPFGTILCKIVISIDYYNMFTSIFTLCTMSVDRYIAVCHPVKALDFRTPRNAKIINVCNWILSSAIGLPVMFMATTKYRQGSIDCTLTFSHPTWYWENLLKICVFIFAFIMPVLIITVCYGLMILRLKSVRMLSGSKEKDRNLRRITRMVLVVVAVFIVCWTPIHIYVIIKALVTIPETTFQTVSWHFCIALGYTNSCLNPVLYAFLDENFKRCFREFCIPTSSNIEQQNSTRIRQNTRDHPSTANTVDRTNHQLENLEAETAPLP

## CN(CCN)C(=O)Oc1ccc(C[N+]2(C)CC[C@]34c5c6ccc(O)c5OC3C(=O)CCC4[C@H]2C6)cc1.Cl.[Cl-] (stereo partly shown) [Compound A]
[1]; pH 7.5
  % production of hydromorphone 20 hrs: 70%
[1]; pH 10
  % production of hydromorphone 20 hrs: 100%

## CN(CCNC(=O)[C@@H](N)CCCNC(=N)N)C(=O)Oc1ccc(C[N@@+]2(C)CC[C@]34c5c6ccc(O)c5O[C@H]3C(=O)CC[C@H]4[C@H]2C6)cc1 [Example 1]
μ-opioid receptor
  IC50: 250 nM

## COc1ccc2c3c1O[C@H]1C(=O)CC[C@H]4[C@@H](C2)N(C)CC[C@]314 [Hydrocodone]
[2]
  Cmax HC (ng/ml) following PO dosing: 23.6 ng/mL
